# In article PMC8235661, “Photoelectric Dye, NK-5962, as a Potential Drug for Preventing Retinal Neurons from Apoptosis: Pharmacokinetic Studies Based on Review of the Evidence” (Life, 2021):
# Several values for one entry are separate records, joined by “and”; a condition that tells them apart may be missing. Equal entries are not always repeated. Where two headings read alike, the source gives them in different places.
# Legend:
# [1] = In vivo pharmacokinetics, oral administration; design: species or system rat; settings: for Kp at 8 h: eye ball / plasma, read-out: Eye Ball/Plasma Ratio(Kp); for bioavailability: oral, read-out: absolute bioavailability
# Experimental: Male Sprague Dawley (SD) and Wistar rats (5-week old) were obtained from Charles River Laboratories Japan (Yokohama, Japan) and Japan SLC, Inc. (Hamamatsu, Japan), respectively. All animals were maintained in air-conditioned quarters with room temperatures of 20 ± 2 °C, relative humidity of 50 ± 10%, and an alternating 12 h light/dark cycle. The rats were fed a certified diet MF (Oriental Yeast Co., Tokyo, Japan) and water ad libitum. The studies were conducted in accordance with the guidelines provided by the Animal Care and Use Committee of Osaka University (Identifier DouyakuR01-3-1).
# A test compound (NK-5962) solution in 50% DMSO/water was injected intravenously (i.v.) to male SD rats. A test compound suspension in 0.5% methyl cellulose was administered orally (p.o.) to male Wistar rats. The dosage of the test compound was 1 mg/2 mL/kg (i.v.) and 10 or 100 mg/10 mL/kg (p.o.). Blood samples were collected from the jugular vein at 5 and 15 min and 1 h (i.v.) by using pre-heparinized syringe after the intravenous administration or from the caudal vein at 15 and 30 min, 1, 2 and 4 h (p.o.) by using heparinized capillary tube after the oral administration. At 30 min and 2 h (i.v.) or 8 h (p.o.), blood samples were collected from the abdominal aorta under isoflurane anesthesia and the eye balls and the whole brain were excised immediately.
# Plasma was prepared by centrifugation of the blood samples. Plasma and tissues were stored at −80 °C. The tissues were homogenized with a four-fold volume of phosphate-buffered saline to obtain a 20% tissue homogenate. Plasma and 20% tissue homogenates were precipitated with 4–20 volumes of acetonitrile/IS and centrifuged at 15,000× g at 4 °C for 10 min. The supernatants were analyzed by liquid chromatography and tandem mass spectrometry (LC-MS/MS). Standard non-compartmental analysis was performed to determine the pharmacokinetic parameters: elimination half-life (t1/2) and area under the concentration time curve from time zero to infinity (AUC∞). The absolute bioavailability (BA) of the oral dose was calculated as AUC∞ (p.o.)/AUC∞ (i.v.).
# (§1) Liquid chromatography and tandem mass spectrometry instrument (LC-MS8060) equipped with Shimadzu Nexera series LC system (Shimadzu, Kyoto, Japan) were used. All compounds were analyzed in multi-reaction monitoring mode under electron spray ionization conditions. The analytical column used was a […] C18 MGIII (3 μm × 2.0 mmID × 35 mm; OSAKA SODA, Osaka, Japan) at 50 °C. The gradient mobile phase consisted of 0.1% formic acid in water (mobile phase A) and 0.1% formic acid in acetonitrile (mobile phase B) at a total flow rate of 1 mL/minute. The initial mobile phase composition was 10% B, which was held constant for 0.2 min, increased in a linear fashion to 90% B over 1 min, then held constant for 0.8 min, and then finally brought back to the initial condition of 10% B over 0.01 min and re-equilibrated for 1 min. The transitions (precursor ion > product ion) of NK-5962 and IS (methyl testosterone) are 433.2 > 279.2 and 303.1 > 109.1 (positive), respectively.
# [2] = Unbound fraction by equilibrium dialysis, human plasma; type: in vitro ADME; settings: 1 μM, equilibrium dialysis 37 °C 4 h
# Experimental: (§2) An equilibrium dialysis apparatus, Rapid Equilibrium Dialysis (RED) Device Single-Use Plate with Inserts, 8K MWCO (ThermoFisher Scientific, Waltham, MA, USA), was used to determine the unbound fraction for each compound in human plasma, rat plasma, and medium containing 10% fetal bovine serum (FBS). Plasma or medium was mixed with the test compound (1 μM) and 200 μL aliquots were loaded into the apparatus and dialyzed versus 350 μL of 100 mM phosphate buffer (pH 7.4) at 37 °C for 4 h by rotation at 1000 rpm. The unbound fraction was calculated as the ratio of receiver side (buffer) to donor side (plasma) concentrations.
# [3] = Tests for the biological evaluation of medical devices (ISO 10993); settings: data not shown
# [4] = Eye ball concentration after topical application as eye drops; type: in vivo; settings: Wistar, rat
# Experimental: (§3) The NK-5962 solutions at 16 μM concentration in phosphate-buffered saline and at 39.7 μM concentration in 0.5% methyl cellulose 400 solution (FUJIFILM Wako Chemicals, Osaka, Japan) were prepared as eye drops and topically applied to both eyes of two Wistar rats assigned for each concentration. The eyes were enucleated 30 min after topical application, washed twice in saline, weighed, and frozen for NK-5962 measurement. In parallel, 3 μL of the NK-5962 solution at 16 μM concentration in phosphate-buffered saline was injected into the vitreous of both eyes of 2 Wistar rats. The eyes in each rat were enucleated 5 min and 2 h after the intravitreous injection, washed twice in saline, weighed, and then frozen. Both eyes of one rat served as the negative control. This study was approved by the Animal Care and Use Committee at Okayama University (Identifier OKU-2016267, OKU-2019196).
# Liquid chromatography and tandem mass spectrometry instrument (LC-MS8060) equipped with Shimadzu Nexera series LC system (Shimadzu, Kyoto, Japan) were used. All compounds were analyzed in multi-reaction monitoring mode under electron spray ionization conditions. The analytical column used was a […] C18 MGIII (3 μm × 2.0 mmID × 35 mm; OSAKA SODA, Osaka, Japan) at 50 °C. […]
# [5] = Eye ball concentration after intravitreous injection; type: in vivo, rat; settings: intravitreous 16 µM (3 µL)
# Experimental: as §3, §1
# [6] = Unbound fraction by equilibrium dialysis, medium containing 10% fetal bovine serum; type: in vitro ADME; settings: 1 μM, equilibrium dialysis 37 °C 4 h
# Experimental: as §2
structure (smiles),measurement,setting,value
"CCCCN(CCCC)c1ccc(C=Cc2sc3ccccc3[n+]2CC(=O)O)cc1.[Br-] [NK-5962, 2-[2-[4-(dibutylamino)phenyl]ethenyl]-3-carboxymethylbenzothiazolium bromide]",maximum plasma concentration after the oral administration,[1]; excluding the 8 h values suspected of contamination,17 nM
same,maximum eye ball concentration expected after oral administration,[1]; from maximum plasma concentration and eye ball/plasma ratio 0.072,1.3 nM
same,Kp at 8 h,"[1]; male, Wistar, oral 10 mg/kg, single rat",< 0.059
same,Kp at 8 h,"[1]; male, Wistar, oral 100 mg/kg, single rat",0.072
same,concentration at 8 h,"[1]; male, Wistar, rat, eye ball, po, 10 mg/kg, oral 10 mg/kg, single rat, read-out: Eye Ball Concentration",< 0.1 nM
same,concentration at 8 h,"[1]; male, Wistar, rat, eye ball, po, 100 mg/kg, oral 100 mg/kg, single rat, read-out: Eye Ball Concentration",0.33 nM
same,bioavailability,"[1]; male, Wistar, rat, plasma, 10 mg/kg",< 1%
same,bioavailability,"[1]; male, Wistar, rat, plasma, 100 mg/kg",< 1%
same,concentration at 0.25 h,"[1]; male, Wistar, rat, plasma, po, 10 mg/kg, oral 10 mg/kg, 0.25 h, single rat",2.42 nM
same,concentration at 0.5 h,"[1]; male, Wistar, rat, plasma, po, 10 mg/kg, oral 10 mg/kg, 0.5 h, single rat",1.51 nM
same,concentration at 1 h,"[1]; male, Wistar, rat, plasma, po, 10 mg/kg, oral 10 mg/kg, 1 h, single rat",2.11 nM
same,concentration at 2 h,"[1]; male, Wistar, rat, plasma, po, 10 mg/kg, oral 10 mg/kg, 2 h, single rat",1.76 nM
same,concentration at 4 h,"[1]; male, Wistar, rat, plasma, po, 10 mg/kg, oral 10 mg/kg, 4 h, single rat",0.8 nM
same,concentration at 8 h,"[1]; male, Wistar, rat, plasma, po, 10 mg/kg, oral 10 mg/kg, single rat, * value deemed erroneous by contamination, read-out: Plasma Concentration",1.69 nM
same,concentration at 0.25 h,"[1]; male, Wistar, rat, plasma, po, 100 mg/kg, oral 100 mg/kg, 0.25 h, single rat",11.7 nM
same,concentration at 0.5 h,"[1]; male, Wistar, rat, plasma, po, 100 mg/kg, oral 100 mg/kg, 0.5 h, single rat",14.6 nM
same,concentration at 1 h,"[1]; male, Wistar, rat, plasma, po, 100 mg/kg, oral 100 mg/kg, 1 h, single rat",17 nM
same,concentration at 2 h,"[1]; male, Wistar, rat, plasma, po, 100 mg/kg, oral 100 mg/kg, 2 h, single rat",17.2 nM
same,concentration at 8 h,"[1]; male, Wistar, rat, plasma, po, 100 mg/kg, oral 100 mg/kg, single rat, * value deemed erroneous by contamination, read-out: Plasma Concentration",4.57 nM
same,Plasma Concentration,"[1]; oral 10 mg/kg, 0.25 h, single rat, 10 mg/kg",1.71 nM
same,Plasma Concentration,"[1]; oral 10 mg/kg, 0.5 h, single rat, 10 mg/kg",1.90 nM
same,Plasma Concentration,"[1]; oral 10 mg/kg, 1 h, single rat, 10 mg/kg",2.26 nM
same,Plasma Concentration,"[1]; oral 10 mg/kg, 2 h, single rat, 10 mg/kg",1.51 nM
same,Plasma Concentration,"[1]; oral 10 mg/kg, 4 h, single rat, 10 mg/kg",1.20 nM
same,Plasma Concentration,"[1]; oral 100 mg/kg, 0.25 h, single rat, 100 mg/kg",6.17 nM
same,Plasma Concentration,"[1]; oral 100 mg/kg, 0.5 h, single rat, 100 mg/kg",11.15 nM
same,Plasma Concentration,"[1]; oral 100 mg/kg, 1 h, single rat, 100 mg/kg",17.43 nM
same,Plasma Concentration,"[1]; oral 100 mg/kg, 2 h, single rat, 100 mg/kg",11.51 nM
same,Plasma Concentration,"[1]; oral 100 mg/kg, 4 h, single rat, 100 mg/kg",11.52 nM and 5.75 nM
same,concentration at 8 h,"[1]; oral 100 mg/kg, single rat, 100 mg/kg, read-out: Eye Ball Concentration",0.40 nM
same,Protein-Binding (Non-Binding Ratio) Human Plasma,[2],0.028
same,toxicity in all tests for the biological evaluation of medical devices (ISO 10993),[3],safe
same,concentration at 0.5 h,[4]; topical eye drop 16 µM (10 µL),0.14 nM
same,concentration at 0.5 h,[4]; topical eye drop 39.7 µM (10 µL),0.96 nM
same,concentration at 0.083 h,"[5]; Wistar, rat, eye ball, other: intravitreous injection, 0.083 h (5 min), read-out: Mean Eye Ball Concentration",7.25 nM
same,concentration at 0.083 h,"[5]; Wistar, rat, eye ball, other: intravitreous injection, 0.083 h, single eye, read-out: Eye Ball Concentration",9.23 nM
same,concentration at 2 h,"[5]; Wistar, rat, eye ball, other: intravitreous injection, 2 h, single eye, read-out: Eye Ball Concentration",1.19 nM
same,concentration at 2 h,"[5]; Wistar, rat, eye ball, other: intravitreous injection, 2 h, read-out: Mean Eye Ball Concentration",1.49 nM
same,concentration at 2 h,"[5]; 0.083 h, single eye, read-out: Eye Ball Concentration",5.27 nM
same,concentration at 2 h,"[5]; 2 h, single eye, read-out: Eye Ball Concentration",1.78 nM
same,Protein-Binding (Non-Binding Ratio) 10% Fetal Bovine Serum,[6],0.34
